Experimental data published in patent US20140088187A1, “ANDROGEN RECEPTOR INHIBITORS AND METHODS OF USE THEREOF” (BETH ISRAEL DEACONESS MEDICAL CENTER, priority 2010, published 2014).
Residue numbers refer to the chain shown, from its start.

Legend:
[1] = target: T1, AR WT (Homo sapiens, UniProt P10275); experiment: AR expression levels in transiently transfected COS7 cells, AR WT; format: cell-based; details: 24 hours
T1 construct: The AR WT construct expresses full-length human AR under cmv promoter control; expressed in transfected cells; host or cells: COS7
T1 sequence (P10275 1-920): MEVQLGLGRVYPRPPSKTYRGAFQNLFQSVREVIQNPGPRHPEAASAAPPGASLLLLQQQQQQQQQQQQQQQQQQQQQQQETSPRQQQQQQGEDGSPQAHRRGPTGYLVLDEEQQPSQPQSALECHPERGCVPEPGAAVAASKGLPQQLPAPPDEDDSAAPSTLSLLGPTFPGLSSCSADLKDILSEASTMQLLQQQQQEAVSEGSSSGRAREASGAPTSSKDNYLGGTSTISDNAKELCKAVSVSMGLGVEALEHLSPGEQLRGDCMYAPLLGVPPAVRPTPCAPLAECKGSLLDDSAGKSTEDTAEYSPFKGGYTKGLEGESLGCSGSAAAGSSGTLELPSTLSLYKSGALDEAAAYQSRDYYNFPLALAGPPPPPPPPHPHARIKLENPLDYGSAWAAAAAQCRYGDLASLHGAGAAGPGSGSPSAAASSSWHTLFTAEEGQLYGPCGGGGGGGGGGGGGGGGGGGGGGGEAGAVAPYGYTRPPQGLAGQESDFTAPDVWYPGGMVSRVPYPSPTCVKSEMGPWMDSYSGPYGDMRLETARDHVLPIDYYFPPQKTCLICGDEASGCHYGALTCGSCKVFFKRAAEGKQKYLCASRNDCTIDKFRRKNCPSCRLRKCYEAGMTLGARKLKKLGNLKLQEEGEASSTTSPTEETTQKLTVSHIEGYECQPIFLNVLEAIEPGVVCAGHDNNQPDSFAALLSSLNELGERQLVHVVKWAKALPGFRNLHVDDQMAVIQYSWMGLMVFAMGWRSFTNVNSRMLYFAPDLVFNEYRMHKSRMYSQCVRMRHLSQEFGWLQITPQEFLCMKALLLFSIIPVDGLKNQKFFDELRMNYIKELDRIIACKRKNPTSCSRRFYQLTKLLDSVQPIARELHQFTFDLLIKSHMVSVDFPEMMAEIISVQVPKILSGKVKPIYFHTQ

[2] = target: T2, AR in C4-2 cells (Homo sapiens, UniProt P10275, T878A)
T2 sequence (P10275 1-920 T878A): T1 sequence (P10275 1-920) with T878A

[3] = steroid depleted medium, data not shown
[4] = steroid depleted medium, dose response

SMILES: CCOc1cc(F)c(S(=O)(=O)NCc2ccc3c(c2)OCO3)cc1F [Compound A89, N-(1,3-benzodioxol-5-ylmethyl)-4-ethoxy-2,5-difluorobenzenesulfonamide]
- AR WT protein levels [1]: decreased in a dose dependent manner
- basal PSA ([2]; 24 hours (FIG. 10a)): decrease in basal PSA
- total AR protein levels ([2]; 24 hours (FIG. 10a)): noteworthy decrease
- decrease in AR protein in the presence of proteasome inhibitor ([2]; proteasome inhibitors (MG115 and MG132)): blocked in the presence of a proteasome inhibitor
- PSA expression [2, 3]: reduced
- nuclear AR levels [2, 3]: reduced nuclear AR levels
- AR protein [2, 4]: dose dependent decrease
- PSA levels [2, 4]: dose dependent decrease
